What was measured:
[1] = tested on: newly diagnosed multiple myeloma, patients ineligible for HDC and ASCT; experiment: Phase 3 MAIA study (NCT02252172), interim analysis: progression-free survival, response by IMWG criteria, survival; format: in vivo, human
Description: Subject participation will include a Screening Phase, a Treatment Phase, and a Follow-up Phase. The Screening Phase will be up to 21 days before Cycle 1, Day 1. The Treatment Phase will extend from Day 1 of Cycle 1 until discontinuation of all study treatment. […] This will equate to […] of dosing at the start of the study and a total of 23 doses in the first year. Lenalidomide will be administered at a dose of 25 mg orally (PO) on Days 1 through 21 of each 28-day cycle, and dexamethasone will be administered at a dose of 40 mg once a week. Subjects in both treatment arms will continue lenalidomide and dexamethasone until disease progression or unacceptable toxicity. […] Randomization will be stratified by International Staging System (I vs II vs III), region (North America vs Other), and age (<75 vs >75), using an equal allocation ratio of 1:1.
The primary endpoint is PFS, which is defined as the duration from the date of randomization to either progressive disease, or death, whichever occurs first. Disease progression will be determined according to the IMWG criteria.
The secondary efficacy endpoints include: • Time to disease progression (TTP) is defined as the time from the date of randomization to the date of first documented evidence of PD, as defined in the IMWG criteria. […] Disease progression will be based on investigator judgment. For those subjects who are still alive and not yet progressed on the next line of treatment, they will be censored on the last date of follow-up. • Overall survival (OS), measured from the date of randomization to the date of the subject's death. […] For subjects without response, data will be censored either at the date of progressive disease or, in the absence of progressive disease, at the last disease evaluation before the start of subsequent anti-myeloma therapy. • Duration of response, calculated from the date of initial documentation of a response (PR or better) to the date of first documented evidence of progressive disease, as defined in the IMWG criteria. For subjects who have not progressed, data will be censored at the last disease evaluation before the start of any subsequent anti-myeloma therapy. • To evaluate clinical efficacy of DRd in high risk molecular subgroups compared to Rd alone. • To evaluate the impact of DRd compared to Rd on patient-reported perception of global health.
Disease evaluations will be performed by a central laboratory (unless otherwise specified). This study will use the IMWG consensus recommendations for multiple myeloma treatment response criteria (Durie et al., Leukemia, 20:[…], 2006, Rajkumar et al., Blood, 117:4691-4695, 2011) presented in Table 1. For quantitative immunoglobulin, M-protein, and immunofixation measurements in serum and 24 hour urine, the investigator will use results provided by the central laboratory.
The primary endpoint was progression-free survival. The study protocol is described in Example 1.
Patients were stratified by International Staging System (ISS; I vs. II vs. III), region (North America vs. Other), and age (<75 years vs. >75 years).
During each 28-day cycle, all patients received oral lenalidomide (25 mg, Days 1-21) and oral dexamethasone (40 mg, Days 1, 8, 15, and 22) until disease progression or unacceptable toxicity. For patients older than 75 years of age or with body mass index less than 18.5 kg/m^2, dexamethasone was administered at a dose of 20 mg once weekly. […] Pre-infusion medications were administered to manage infusion reactions.
The primary endpoint was progression-free survival (time from date of randomization to either disease progression or death).

[2] = tested on: patients with newly diagnosed multiple myeloma ineligible for HDC and ASCT; conditions: in vivo
Description: Safety will be measured by adverse events, laboratory test results, ECGs, vital sign measurements, physical examination findings, and assessment of ECOG performance status score.
Safety analyses included adverse event assessment graded in severity according to NCI-CTCAE version 4, electrocardiograms, clinical laboratory testing, physical examinations, and vital signs.
The safety population included patients who received any dose of trial treatment.

[3] = tested on: minimal residual disease (clonal multiple myeloma cells in bone marrow); experiment: MAIA: minimal residual disease in bone marrow aspirates by next-generation sequencing (clonoSEQ version 2.0); format: in vivo, human; conditions: threshold 1 tumor cell per 10^5 white cells
Excerpt: MRD status may be assessed from bone marrow aspirate samples using for example next generation sequencing (NGS) of immunoglobulin heavy and light chains. The updated, analytically validated version of the clonoSEQ® Assay (Version 2) by Adaptive Biotechnologies may be used for the detection, quantification and analysis of MRD.
A central laboratory performed disease evaluations (serum and 24-hour urine samples) every 28 days for 2 years, and then every 8 weeks until disease progression. For patients with positive serum immunofixation and daratumumab (DARZALEX®) interference, complete responses were confirmed using reflex assays (McCudden et al., Clin Chem Lab Med 54:1095-1104, 2016). Minimal residual disease was evaluated by next-generation sequencing assays (clonoSEQ® version 2.0; Adaptive Biotechnologies) on bone marrow aspirates collected at baseline, at time of suspected complete or stringent complete response (undetectable M-protein on two consecutive serum and urine electrophoresis tests), and at 12, 18, 24, and 30 months post-first dose in patients who achieved a complete response or better.

[4] = ITT population, median follow-up 28.0 months

Substance: daratumumab (DARZALEX®) group: daratumumab (DARZALEX®) in combination with lenalidomide and dexamethasone
- events of progression or death while receiving the next line of therapy ([1]; 155 events in total): 68 patients
- patients with disease progression events (time-to-event analysis of disease progression) ([1]; 179 events in total): 17.9%
- reduction of the risk of progression or death ([1]; DRd vs Rd, primary analysis of MAIA): 44%
- Kaplan-Meier estimate of the 30-month rate of progression-free survival ([1]; ITT population): 70.6%
- median time to progression ([1]; ITT population): not being reached
- Overall response: No. with response ([1]; ITT population (N = 368 vs 369), median follow-up 28.0 months): 342
- median overall survival ([1]; ITT population, long-term follow-up ongoing): not reached
- median progression-free survival ([1]; ITT population, median follow-up 28 months): not reached
- Best overall response: Complete response [1, 4]: 63 (17.1) no. (%)
- Best overall response: Complete response or better [1, 4]: 175 (47.6) no. (%)
- Best overall response: Partial response [1, 4]: 50 (13.6) no. (%)
- Best overall response: Progressive disease [1, 4]: 1 (0.3) no. (%)
- Best overall response: Response could not be evaluated [1, 4]: 14 (3.8) no. (%)
- Best overall response: Stringent complete response [1, 4]: 112 (30.4) no. (%)
- Best overall response: Very good partial response [1, 4]: 117 (31.8) no. (%)
- Best overall response: Very good partial response or better [1, 4]: 292 (79.3) no. (%)
- Overall response rate [1, 4]: 92.9%
- rate of complete response or better ([1]; ITT population, P<0.0001): 47.6%
- rate of very good partial response or better ([1]; ITT population, P<0.0001): 79.3%
- treatment discontinued due to progressive disease ([1]; at clinical cutoff date Sep. 24, 2018): 14.6%
- 36-month rate of progression-free survival 2 ([1]; in vivo): 77.1%
- median duration of response ([1]; in vivo): not reached
- median time to complete response or better ([1]; in vivo): 10.4 months
- median time to first response among responders ([1]; in vivo): 1.05 months
- patients with events of disease progression or death ([1]; median follow-up 28.0 months, 240 events in total): 26.4%
- deaths ([1]; number of deaths, 138 in total, median follow-up 28.0 months): 62
- median progression-free survival 2 ([1]; progression on next line of therapy or death): not reached
- discontinuation of trial treatment due to infections [2]: 0.5%
- rate of any-grade infections [2]: 86.3%
- rate of grade 3 or 4 infections [2]: 32.1%
- Negative status for minimal residual disease ([3]; ITT population): 89 (24.2) no. (%)
- negative status for minimal residual disease, times as high as in the control group [3]: more than 3 times
- patients minimal residual disease-negative ([3]; ITT, P<0.0001): 24.2%
